Measurements taken from ChEMBL document CHEMBL1201862, “PubChem BioAssay data set” (2004).
Active and inactive are the calls of the source.

How the values were obtained:
Prothrombin = Prothrombin (Bos taurus, UniProt P00735); assay: thrombin inhibition, dose response, biochemical, fluorescence polarization, uHTS hits (AID 602369); assay type: functional
[1] = target: 26S proteasome non-ATPase regulatory subunit 14 (Homo sapiens, UniProt O00487); assay: inhibition of proteasome subunit RPN11 – biochemical, fluorescence polarization, uHTS hits, confirmation (AID 602368); assay type: functional
[2] = target: 72 kDa type IV collagenase (Homo sapiens, UniProt P08253); assay: Dose Response validation of uHTS RPN11 inhibitor hits using a MMP-2 Fluorescence assay.; assay type: functional
Aurora kinase B = Aurora kinase B (Homo sapiens, UniProt Q96GD4); assay type: functional
[3] = target: Serine/threonine-protein kinase 17A (Homo sapiens, UniProt Q9UEE5); assay type: functional
SN12K1 = assay: cells; assay type: functional; details: Homo sapiens
Aspartyl aminopeptidase = Aspartyl aminopeptidase (Plasmodium falciparum 3D7, UniProt Q8I2J3)
P388 = assay: cells; assay type: functional; details: Mus musculus
Procathepsin L = Procathepsin L (Homo sapiens, UniProt P07711)
[4] = target: T1, High affinity choline transporter 1 (Homo sapiens, UniProt Q9GZV3); assay: CHT inhibitors, dose response, cell-based, 10-point CRC, membrane potential dye (AID 588401); assay type: functional;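 further: membrane potential dye fluorescence of choline-evoked depolarization via CHT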
T1 sequence (Q9GZV3 whole entry): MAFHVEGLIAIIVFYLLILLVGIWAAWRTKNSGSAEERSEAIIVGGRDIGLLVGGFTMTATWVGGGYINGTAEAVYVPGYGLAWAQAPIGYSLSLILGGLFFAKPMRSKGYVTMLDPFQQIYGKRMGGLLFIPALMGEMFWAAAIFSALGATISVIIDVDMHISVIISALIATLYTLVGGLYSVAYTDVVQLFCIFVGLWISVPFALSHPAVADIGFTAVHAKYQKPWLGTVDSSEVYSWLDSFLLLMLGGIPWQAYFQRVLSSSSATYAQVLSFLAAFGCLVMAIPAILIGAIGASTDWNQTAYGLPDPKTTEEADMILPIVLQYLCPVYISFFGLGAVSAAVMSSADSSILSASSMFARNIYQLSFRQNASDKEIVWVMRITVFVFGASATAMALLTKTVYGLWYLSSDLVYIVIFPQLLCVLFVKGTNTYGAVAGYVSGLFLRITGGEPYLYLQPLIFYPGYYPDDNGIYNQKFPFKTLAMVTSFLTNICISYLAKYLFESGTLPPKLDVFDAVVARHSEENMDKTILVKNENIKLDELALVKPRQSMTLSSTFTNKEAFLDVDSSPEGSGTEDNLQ

P388/ADR = assay: cells; assay type: functional; details: Mus musculus
[5] = target: T1, High affinity choline transporter 1; assay: CHT inhibitors, dose response, cell-based, 5-point CRC, membrane potential dye (AID 504840); assay type: functional
[6] = target: T2, Neuropeptides B/W receptor type 1 (Homo sapiens, UniProt P48145); assay: GPR7 antagonist potency, late-stage follow-up, cell-based, fluorescence, dose response, set 5 (AID 588566); assay type: functional
T2 sequence (P48145 whole entry): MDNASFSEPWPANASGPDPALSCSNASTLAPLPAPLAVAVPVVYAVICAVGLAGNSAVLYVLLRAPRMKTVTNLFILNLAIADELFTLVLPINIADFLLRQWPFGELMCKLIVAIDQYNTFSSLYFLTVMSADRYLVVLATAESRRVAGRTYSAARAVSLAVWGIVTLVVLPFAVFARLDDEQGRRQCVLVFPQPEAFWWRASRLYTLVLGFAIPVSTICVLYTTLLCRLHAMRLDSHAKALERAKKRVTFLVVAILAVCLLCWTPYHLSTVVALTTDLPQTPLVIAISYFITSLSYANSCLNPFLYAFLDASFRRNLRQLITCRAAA

[7] = target: Melanin-concentrating hormone receptor 1 (Homo sapiens, UniProt Q99705); assay: Late-stage fluorescence-based counterscreen for antagonists of the G-protein coupled receptor 7 (GPR7): cell-based dose response assay to identify antagonists of the melanin-concentrating hormone receptor 1 (MCHR1) Set 5.; assay type: functional
[8] = target: Serine/threonine-protein kinase pim-1 (Homo sapiens, UniProt P11309); assay type: functional
[9] = target: Serine/threonine-protein kinase pim-3 (Homo sapiens, UniProt Q86V86); assay type: functional;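 further: value obtained as one member of a broad kinase panel profiling effort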
[10] = target: Cell division cycle 7-related protein kinase (Homo sapiens, UniProt O00311); assay type: functional;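 further: value obtained from a kinome-wide kinase panel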
[11] = target: Cyclin-dependent kinase 19 (Homo sapiens, UniProt Q9BWU1); assay: Navigating the Kinome. Panel member name: CDC2L6; assay type: functional
Orexin receptor type 2 [12] = target: T3, Orexin receptor type 2 (Homo sapiens, UniProt O43614); assay: Counterscreen assay for antagonists of the orexin 1 receptor (OX1R; HCRTR1): Fluorescence-based cell-based dose response assay for antagonists of the orexin 2 receptor (OX2R; HCRTR2), run by assay provider.; assay type: functional
[13] = target: T4, Orexin/Hypocretin receptor type 1 (Homo sapiens, UniProt O43613); assay: (§1) Fluorescence-based cell-based high throughput dose response assay for antagonists of the orexin 1 receptor (OX1R; HCRTR1). [Related pubchem assays (depositor defined):AID434989, AID435008, AID463079, AID485270, AID492963, AID492964, AID492965, AID493232, AID504717, AID504718]; assay type: functional
[14] = target: T4, Orexin/Hypocretin receptor type 1; assay: as §1, with “Homogeneous Time Resolved Fluorescence (HTRF)-based” for “Fluorescence-based”; assay type: functional
[15] = (§2) Counterscreen for antagonists of the orexin 1 receptor (OX1R; HCRTR1): Fluorescence-based cell-based high throughput dose response assay to identify antagonists of the parental CHO cell line. [Related pubchem assays (depositor defined):AID434989, AID435008, AID463079, AID485270, AID492963, AID492964, AID492965, AID493232, AID504699, AID504701]; assay type: functional
Orexin receptor type 2 [16] = target: T3, Orexin receptor type 2; assay: Counterscreen assay for antagonists of the orexin 1 receptor (OX1R; HCRTR1): Homogeneous Time Resolved Fluorescence (HTRF)-based cell-based dose response assay for antagonists of the orexin 2 receptor (OX2R; HCRTR2), run by assay provider.; assay type: functional
CHO-K1 = assay: as §2, with “Homogeneous time resolved fluorescence (HTRF)-based” for “Fluorescence-based”, “cell-based” for “cell-based high throughput”, “CHO-K1” for “CHO”; assay type: functional; details: Cricetulus griseus;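 further: potency for inhibition of ATP-stimulated IP1 production as antagonists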
[17] = target: DNA dC->dU-editing enzyme APOBEC-3G (Homo sapiens, UniProt Q9HC16); assay: APOBEC3G deaminase inhibitors, SAR follow-up, biochemical, fluorescence, single-stranded DNA substrate (AID 602136); assay type: functional; details: read-out: IC50_Mean
[18] = target: DNA dC->dU-editing enzyme APOBEC-3A (Homo sapiens, UniProt P31941); assay: SAR analysis of small molecule inhibitors of APOBEC3A DNA Deaminase via a fluorescence-based single-stranded DNA deaminase assay.; assay type: functional; details: read-out: IC50_Mean
[19] = target: Luciferin 4-monooxygenase (Photinus pyralis, UniProt P08659); assay: firefly luciferase enzyme inhibitors, dose response, biochemical, dry powder samples, plate reader (AID 588451)
[20] = target: T5, Heat shock factor protein 1 (Mus musculus, UniProt P38532); assay: inhibition of MG132-induced HSE-luciferase signal, confirmation, cell-based, NIH3T3, luminescence, dose retest (AID 2382); assay type: functional;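 further: NIH3T3 fibroblasts with HSF1-driven luciferase reporter stressed by proteasome inhibitor MG132; luminescence from HSF1-driven luciferase expression after 8 hours of MG132 stress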
T5 sequence (P38532 whole entry): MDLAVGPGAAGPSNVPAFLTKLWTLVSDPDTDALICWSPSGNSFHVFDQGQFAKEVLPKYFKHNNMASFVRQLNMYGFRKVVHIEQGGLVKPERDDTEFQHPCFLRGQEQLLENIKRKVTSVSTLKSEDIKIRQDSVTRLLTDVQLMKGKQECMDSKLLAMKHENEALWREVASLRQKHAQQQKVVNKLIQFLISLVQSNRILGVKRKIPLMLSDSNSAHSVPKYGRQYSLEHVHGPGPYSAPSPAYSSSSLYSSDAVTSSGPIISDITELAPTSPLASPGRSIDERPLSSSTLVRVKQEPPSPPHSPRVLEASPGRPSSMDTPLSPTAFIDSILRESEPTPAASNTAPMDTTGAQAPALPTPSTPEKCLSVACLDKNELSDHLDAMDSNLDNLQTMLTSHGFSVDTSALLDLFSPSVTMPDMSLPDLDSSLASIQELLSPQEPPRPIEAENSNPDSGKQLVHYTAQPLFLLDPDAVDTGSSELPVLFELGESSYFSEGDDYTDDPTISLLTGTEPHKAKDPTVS

[21] = cytotoxicity in HEK-293T cells, dose response, cytotoxicity control for TCR NF-kB inhibitor project, luminescence, T-cell screen hits (AID 489026); assay type: functional, cell-based;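 further: cells exposed to compound about 14 hours before the viability readout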
H4 [22] = assay: Inhibitors of Prion Protein 5' UTR mRNA Measured in Cell-Based System Using Plate Reader - 2078-01_Inhibitor_Dose_DryPowder_Activity. [Related pubchem assays (depositor defined):AID488894]; assay type: functional; details: Homo sapiens
[23] = Shn3 3'UTR reporter inhibitors, dose response, cell-based, Clone20 osteoblasts, firefly luciferase, cherry-picked (AID 624132); assay type: functional;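 further: firefly luciferase luminescence from reporter carrying the Shn3 3'UTR in osteoblasts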
H4 [24] = assay: Amyloid Precursor 5' UTR neuroblastoma cell reporter line Measured in Cell-Based System Using Plate Reader - 2078-04_Inhibitor_Dose_DryPowder_Activity. [Related pubchem assays (depositor defined):AID488894]; assay type: functional; details: Homo sapiens
H4 [25] = assay: inhibitors of control reporter signal in H4 cells – cell-based, plate reader, dry powder samples, counter-screen for prion reporter project, dose response (AID 540255); assay type: functional; details: Homo sapiens
[26] = target: T6, Microphthalmia-associated transcription factor (Homo sapiens, UniProt O75030); assay: TRPM1 promoter luciferase signal decrease, dose response, MITF inhibitor project, cell-based, SK-MEL-5, cherry-picked, set 3 (AID 493073); assay type: functional
T6 sequence (O75030 whole entry): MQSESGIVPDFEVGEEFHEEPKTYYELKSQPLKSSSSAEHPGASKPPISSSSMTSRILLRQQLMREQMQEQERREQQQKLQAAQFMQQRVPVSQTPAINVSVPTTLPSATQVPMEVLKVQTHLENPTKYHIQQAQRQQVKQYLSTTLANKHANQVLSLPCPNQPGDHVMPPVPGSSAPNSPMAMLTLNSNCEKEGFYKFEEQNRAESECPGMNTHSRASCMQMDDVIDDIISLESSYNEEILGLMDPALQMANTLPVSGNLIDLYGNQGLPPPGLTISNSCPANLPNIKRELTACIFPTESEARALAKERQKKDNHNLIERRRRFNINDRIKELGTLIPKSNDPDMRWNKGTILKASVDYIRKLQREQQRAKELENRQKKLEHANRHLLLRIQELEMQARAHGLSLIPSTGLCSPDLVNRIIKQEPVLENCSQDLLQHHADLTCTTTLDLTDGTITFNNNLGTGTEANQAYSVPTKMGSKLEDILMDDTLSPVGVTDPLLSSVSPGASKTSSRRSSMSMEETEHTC

T3 sequence (O43614 whole entry): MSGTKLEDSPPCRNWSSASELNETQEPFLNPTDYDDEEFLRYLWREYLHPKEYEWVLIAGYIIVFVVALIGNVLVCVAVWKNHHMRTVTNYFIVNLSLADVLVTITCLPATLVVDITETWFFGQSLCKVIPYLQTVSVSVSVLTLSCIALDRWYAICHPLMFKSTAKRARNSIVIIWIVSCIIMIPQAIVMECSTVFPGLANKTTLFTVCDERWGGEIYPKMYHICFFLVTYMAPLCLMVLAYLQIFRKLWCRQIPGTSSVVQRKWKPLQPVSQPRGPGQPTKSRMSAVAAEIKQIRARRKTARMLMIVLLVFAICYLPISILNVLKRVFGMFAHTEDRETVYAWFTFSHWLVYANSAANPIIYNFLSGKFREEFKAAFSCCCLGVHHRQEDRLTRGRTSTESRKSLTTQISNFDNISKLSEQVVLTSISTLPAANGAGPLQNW
T4 sequence (O43613 whole entry): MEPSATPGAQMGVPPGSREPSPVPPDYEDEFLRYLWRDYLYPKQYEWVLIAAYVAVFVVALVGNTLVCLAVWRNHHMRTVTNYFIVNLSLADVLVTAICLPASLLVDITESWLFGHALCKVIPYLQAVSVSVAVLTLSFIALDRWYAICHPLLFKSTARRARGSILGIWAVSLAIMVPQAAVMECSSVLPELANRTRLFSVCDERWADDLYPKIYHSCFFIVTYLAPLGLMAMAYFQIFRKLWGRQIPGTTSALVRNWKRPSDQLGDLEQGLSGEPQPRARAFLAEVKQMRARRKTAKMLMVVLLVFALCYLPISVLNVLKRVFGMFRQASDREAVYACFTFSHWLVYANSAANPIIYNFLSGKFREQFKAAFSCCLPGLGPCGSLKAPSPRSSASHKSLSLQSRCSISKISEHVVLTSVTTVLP
DNA dC->dU-editing enzyme APOBEC-3A, sequence (P31941 whole entry): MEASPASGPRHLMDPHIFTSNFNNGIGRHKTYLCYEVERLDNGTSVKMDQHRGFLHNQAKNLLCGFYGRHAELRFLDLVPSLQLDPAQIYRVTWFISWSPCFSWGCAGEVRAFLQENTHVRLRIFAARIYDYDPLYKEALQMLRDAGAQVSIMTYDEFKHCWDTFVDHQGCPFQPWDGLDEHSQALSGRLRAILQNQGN
Procathepsin L, sequence (P07711 whole entry): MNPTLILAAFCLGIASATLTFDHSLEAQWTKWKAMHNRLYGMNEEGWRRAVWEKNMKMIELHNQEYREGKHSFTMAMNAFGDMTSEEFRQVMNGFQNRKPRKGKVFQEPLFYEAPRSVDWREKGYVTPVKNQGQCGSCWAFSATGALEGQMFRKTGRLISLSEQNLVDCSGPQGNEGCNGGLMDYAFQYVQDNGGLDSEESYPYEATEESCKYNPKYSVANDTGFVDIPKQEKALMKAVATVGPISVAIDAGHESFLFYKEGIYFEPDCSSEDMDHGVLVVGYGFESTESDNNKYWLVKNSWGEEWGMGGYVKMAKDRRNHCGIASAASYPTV
Serine/threonine-protein kinase 17A, sequence (Q9UEE5 whole entry): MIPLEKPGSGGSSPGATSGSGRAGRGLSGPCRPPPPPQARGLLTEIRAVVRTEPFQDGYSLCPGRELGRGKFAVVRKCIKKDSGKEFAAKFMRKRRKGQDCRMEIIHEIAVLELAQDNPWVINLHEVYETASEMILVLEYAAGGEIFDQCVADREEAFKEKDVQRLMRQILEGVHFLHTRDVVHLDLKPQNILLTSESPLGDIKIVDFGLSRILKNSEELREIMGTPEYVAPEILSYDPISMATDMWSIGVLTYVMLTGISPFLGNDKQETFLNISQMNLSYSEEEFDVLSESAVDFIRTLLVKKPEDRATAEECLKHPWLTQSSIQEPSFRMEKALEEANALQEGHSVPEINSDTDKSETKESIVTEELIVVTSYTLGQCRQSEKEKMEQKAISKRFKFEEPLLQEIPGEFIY
Melanin-concentrating hormone receptor 1, sequence (Q99705 whole entry): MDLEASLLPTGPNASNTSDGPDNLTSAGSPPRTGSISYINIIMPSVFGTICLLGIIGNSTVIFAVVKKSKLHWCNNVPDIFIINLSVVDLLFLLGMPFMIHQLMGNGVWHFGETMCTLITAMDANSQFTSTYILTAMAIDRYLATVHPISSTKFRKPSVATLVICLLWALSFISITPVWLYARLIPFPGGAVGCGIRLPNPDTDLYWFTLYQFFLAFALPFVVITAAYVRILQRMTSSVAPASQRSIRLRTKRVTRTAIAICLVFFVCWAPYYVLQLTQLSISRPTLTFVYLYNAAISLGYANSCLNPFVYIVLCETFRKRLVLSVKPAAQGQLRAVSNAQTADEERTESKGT
72 kDa type IV collagenase, sequence (P08253 whole entry): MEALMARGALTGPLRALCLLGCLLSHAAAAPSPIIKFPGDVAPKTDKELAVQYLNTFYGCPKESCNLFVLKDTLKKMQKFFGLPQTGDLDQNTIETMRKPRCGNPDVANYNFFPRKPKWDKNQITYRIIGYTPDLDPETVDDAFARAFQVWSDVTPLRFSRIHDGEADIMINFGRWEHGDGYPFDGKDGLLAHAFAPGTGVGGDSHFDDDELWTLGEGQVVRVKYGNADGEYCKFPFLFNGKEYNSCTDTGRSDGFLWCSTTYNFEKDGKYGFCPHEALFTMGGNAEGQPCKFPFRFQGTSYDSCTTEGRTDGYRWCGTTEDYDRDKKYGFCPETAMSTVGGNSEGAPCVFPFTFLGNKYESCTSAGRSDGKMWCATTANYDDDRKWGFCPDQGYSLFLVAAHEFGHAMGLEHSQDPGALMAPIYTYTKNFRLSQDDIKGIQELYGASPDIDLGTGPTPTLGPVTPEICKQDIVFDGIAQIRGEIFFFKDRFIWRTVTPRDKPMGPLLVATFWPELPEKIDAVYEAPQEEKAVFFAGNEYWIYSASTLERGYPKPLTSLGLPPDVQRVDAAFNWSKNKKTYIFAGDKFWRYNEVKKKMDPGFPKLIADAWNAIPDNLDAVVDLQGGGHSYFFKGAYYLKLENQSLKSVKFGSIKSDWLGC
Cell division cycle 7-related protein kinase, sequence (O00311 whole entry): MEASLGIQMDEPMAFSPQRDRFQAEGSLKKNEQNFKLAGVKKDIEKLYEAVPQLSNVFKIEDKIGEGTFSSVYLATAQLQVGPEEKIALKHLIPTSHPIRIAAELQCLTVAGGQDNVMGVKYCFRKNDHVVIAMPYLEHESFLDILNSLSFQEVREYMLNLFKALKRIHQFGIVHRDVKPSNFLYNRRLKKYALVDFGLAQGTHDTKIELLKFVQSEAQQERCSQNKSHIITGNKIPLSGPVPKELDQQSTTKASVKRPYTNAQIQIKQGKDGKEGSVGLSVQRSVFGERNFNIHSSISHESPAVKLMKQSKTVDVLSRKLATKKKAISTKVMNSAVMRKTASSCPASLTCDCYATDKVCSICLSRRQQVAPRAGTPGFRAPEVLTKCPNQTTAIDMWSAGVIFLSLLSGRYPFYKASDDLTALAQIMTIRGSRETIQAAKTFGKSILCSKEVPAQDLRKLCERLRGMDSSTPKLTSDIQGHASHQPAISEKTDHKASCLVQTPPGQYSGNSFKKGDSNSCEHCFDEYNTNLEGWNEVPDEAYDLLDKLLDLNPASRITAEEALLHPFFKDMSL
Serine/threonine-protein kinase pim-1, sequence (P11309 whole entry): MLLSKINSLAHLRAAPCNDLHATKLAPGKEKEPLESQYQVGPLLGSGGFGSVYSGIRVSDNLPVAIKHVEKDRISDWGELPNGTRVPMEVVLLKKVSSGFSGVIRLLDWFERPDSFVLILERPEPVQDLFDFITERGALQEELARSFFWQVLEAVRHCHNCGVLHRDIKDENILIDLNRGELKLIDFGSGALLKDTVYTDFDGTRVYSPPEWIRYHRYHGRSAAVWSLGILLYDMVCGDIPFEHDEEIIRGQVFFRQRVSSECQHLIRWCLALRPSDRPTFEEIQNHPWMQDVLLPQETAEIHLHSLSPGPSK
Aspartyl aminopeptidase, sequence (Q8I2J3 whole entry): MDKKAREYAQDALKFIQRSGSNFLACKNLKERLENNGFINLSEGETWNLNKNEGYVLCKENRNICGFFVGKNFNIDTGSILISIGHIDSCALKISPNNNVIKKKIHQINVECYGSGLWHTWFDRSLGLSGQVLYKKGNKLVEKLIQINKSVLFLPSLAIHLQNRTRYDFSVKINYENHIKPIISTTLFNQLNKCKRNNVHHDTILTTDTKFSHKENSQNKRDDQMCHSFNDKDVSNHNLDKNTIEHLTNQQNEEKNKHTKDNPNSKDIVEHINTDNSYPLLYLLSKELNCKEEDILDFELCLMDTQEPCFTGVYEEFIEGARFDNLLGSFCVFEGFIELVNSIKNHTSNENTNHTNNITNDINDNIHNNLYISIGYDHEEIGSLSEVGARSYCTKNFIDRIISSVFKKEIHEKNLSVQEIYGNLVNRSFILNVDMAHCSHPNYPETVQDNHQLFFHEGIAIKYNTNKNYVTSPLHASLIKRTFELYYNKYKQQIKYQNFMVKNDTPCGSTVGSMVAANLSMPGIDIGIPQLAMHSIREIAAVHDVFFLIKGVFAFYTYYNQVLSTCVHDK
26S proteasome non-ATPase regulatory subunit 14, sequence (O00487 whole entry): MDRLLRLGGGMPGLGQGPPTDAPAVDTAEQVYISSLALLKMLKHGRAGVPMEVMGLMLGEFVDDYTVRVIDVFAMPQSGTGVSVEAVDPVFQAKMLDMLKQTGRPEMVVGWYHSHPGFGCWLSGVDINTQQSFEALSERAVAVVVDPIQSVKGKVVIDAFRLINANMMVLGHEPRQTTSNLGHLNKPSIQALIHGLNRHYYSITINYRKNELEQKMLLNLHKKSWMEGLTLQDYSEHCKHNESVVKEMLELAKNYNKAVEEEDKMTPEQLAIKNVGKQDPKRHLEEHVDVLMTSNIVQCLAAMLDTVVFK
Aurora kinase B, sequence (Q96GD4 whole entry): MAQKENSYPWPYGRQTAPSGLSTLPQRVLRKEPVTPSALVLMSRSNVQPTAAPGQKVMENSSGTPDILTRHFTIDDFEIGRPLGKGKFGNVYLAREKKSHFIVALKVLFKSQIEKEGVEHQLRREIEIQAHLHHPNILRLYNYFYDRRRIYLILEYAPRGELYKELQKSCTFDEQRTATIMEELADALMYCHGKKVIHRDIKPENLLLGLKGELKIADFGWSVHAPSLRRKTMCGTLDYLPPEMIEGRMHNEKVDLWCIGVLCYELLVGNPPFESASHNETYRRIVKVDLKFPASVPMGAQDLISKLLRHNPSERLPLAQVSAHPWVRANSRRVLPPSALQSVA

With `Cc1ccc(-n2c(-c3ccco3)nc3nc4ccccc4nc32)cc1` the IC50 (Prothrombin) was 69 µM (active), the IC50 [1] was 24.1 µM (active) and the IC50 [2] was > 100 µM (inactive).

In the case of `CN(C)CC(=O)Nc1n[nH]c2cc(-c3cn(Cc4ccccc4)nn3)ccc12`, the Ki (Aurora kinase B) is reported as 3.16 µM (active) and the Ki [3] is reported as 1 µM (active).

For `O=CN/C=C/c1cc(O)ccc1O` [ERBSTATIN], the GI50 (SN12K1) was 16.2 µM (inactive), the IC50 (Aspartyl aminopeptidase) was 3.72 µM (active) and the GI50 (P388) was 2.1 µM (inactive). The IC50 (Procathepsin L) was > 59.6 µM (not active), the IC50 [4] was 0.751 µM (active) and the GI50 (P388/ADR) was 2.02 µM (inactive). For the same molecule, the IC50 [5] was 4.17 µM (active).

With `COc1ccc(Sc2cnn(Cc3cccc4ccccc34)c(=O)c2Cl)cc1` the IC50 [6] was 1.19 µM (active) and the IC50 [7] was 18.7 µM (inactive).

For `NC(=O)c1ccc2c(ccn2-c2cccc(Cl)c2)c1`, the Ki [8] was 3.98 µM (active) and the Ki [9] was 3.98 µM (active).

In the case of `O=c1cc(-c2ccncc2)[nH]n1-c1ccc([N+](=O)[O-])cc1`, the Ki [10] is reported as 0.501 µM (active) and the Ki [11] is reported as > 100 µM (inactive).

With `O=C(c1cccc(N2CCNC2=O)c1)N1CCCC(Nc2cccc(F)c2)C1` (centres undefined) the IC50 (Orexin receptor type 2 [12]) was > 88.8 µM (inactive), the IC50 [13] was 9.83 µM (active) and the IC50 [14] was 0.922 µM (active). For the same molecule, the IC50 [15] was > 49.7 µM (inactive), the IC50 (Orexin receptor type 2 [16]) was > 50 µM (inactive) and the IC50 (CHO-K1) was > 66.2 µM (inactive).

With `Clc1cnc2[nH]c(SCc3nnc(-c4cccs4)o3)nc2c1` the IC50 [17] was 20.6 µM (inactive) and the IC50 [18] was > 99 µM (inactive).

With `Cc1ccc(NC(=O)c2cc3ccccc3oc2=O)cc1S(=O)(=O)N(C)C` the AC50 [19] was 0.0893 µM (active), the EC50 [20] was < 0.16 µM (active) and the IC50 [21] was > 80 µM (inactive). For the same molecule, the AC50 (H4 [22]) was 0.011 µM (active), the AC50 [23] was 1.29 µM (active) and the AC50 (H4 [24]) was 0.00125 µM (active). The AC50 (H4 [25]) was < 0.02 µM (active) and the AC50 [26] was 0.03 µM (active).
